Measured values: publication PMC8113725, “Structure–activity relationship of ipglycermide binding to phosphoglycerate mutases” (The Journal of Biological Chemistry, 2021)
Bridge positions count the residues as written; N and C are the ends. Square brackets hold non-standard residues; d marks the D form. Peptide text beside a SMILES is read from it. Phe(4-F) = N[C@@H](Cc1ccc(F)cc1)C(=O)O; Nva = CCC[C@H](N)C(=O)O

How the values were obtained:
E. coli iPGM [1] = target: T1, E. coli iPGM (Escherichia coli, UniProt P37689); assay: SPR binding kinetics and saturation binding, biotinylated iPGM on Biotin CAPture chip (Biacore S200); conditions: Supplementary Table 5, SPR, E.c. iPGM; for koff / kon: LoQ = limit of quantitation; for Kd: unit inferred
E. coli iPGM [2] = target: T1, E. coli iPGM; assay: biochemical; conditions: […]
B. malayi iPGM = target: T2, B. malayi iPGM (Brugia malayi, UniProt Q4VWF8); assay: biochemical; type: binding; conditions: for Kd: Supplementary Table 5, SPR, B.m. iPGM, unit inferred
T2 sequence (Q4VWF8 1-515): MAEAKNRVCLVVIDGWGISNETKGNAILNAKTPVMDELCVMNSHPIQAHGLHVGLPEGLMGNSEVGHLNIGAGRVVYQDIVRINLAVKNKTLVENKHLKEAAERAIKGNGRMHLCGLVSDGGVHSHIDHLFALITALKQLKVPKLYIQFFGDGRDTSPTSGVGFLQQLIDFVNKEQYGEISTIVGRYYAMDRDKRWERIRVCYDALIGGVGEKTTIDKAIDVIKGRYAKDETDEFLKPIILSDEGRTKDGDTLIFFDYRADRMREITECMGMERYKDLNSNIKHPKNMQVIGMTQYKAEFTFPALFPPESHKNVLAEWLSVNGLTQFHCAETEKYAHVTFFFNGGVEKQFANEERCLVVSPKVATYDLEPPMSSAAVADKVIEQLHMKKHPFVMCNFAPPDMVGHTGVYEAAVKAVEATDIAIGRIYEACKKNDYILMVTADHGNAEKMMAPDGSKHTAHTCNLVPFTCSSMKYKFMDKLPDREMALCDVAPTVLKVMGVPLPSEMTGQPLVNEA

D. immitis iPGM = D. immitis iPGM (Dirofilaria immitis, UniProt F4ZE01); assay: biochemical
C. elegans iPGM = C. elegans iPGM (Caenorhabditis elegans, UniProt G5EFZ1); assay: SPR binding kinetics and saturation binding, biotinylated iPGM on Biotin CAPture chip (Biacore S200)

Row | SMILES | koff (E. coli iPGM [1]) | kon (E. coli iPGM [1]) | Kd (E. coli iPGM [1]) | IC50 (E. coli iPGM [2]) | koff (B. malayi iPGM) | kon (B. malayi iPGM) | Kd (B. malayi iPGM) | IC50 (D. immitis iPGM; Di iPGM Ave IC50 (M)) | Kd (C. elegans iPGM) | koff (C. elegans iPGM) | kon (C. elegans iPGM) | IC50 (D. immitis iPGM; IC50 (M))
1 | CC(C)C[C@H](NC(=O)[C@H](Cc1ccc(O)cc1)NC(=O)[C@@H]1CSCC(=O)N[C@H](Cc2ccc(O)cc2)C(=O)N[C@@H](CC(=O)O)C(=O)N[C@@H](Cc2ccc(O)cc2)C(=O)N[C@@H](C(C)C)C(=O)NCC(=O)N[C@@H](CC(=O)O)C(=O)N[C@@H](Cc2ccc(O)cc2)C(=O)N1)C(=O)N[C@@H](Cc1ccc(O)cc1)C(=O)NCC(=O)N[C@H](C(=O)N[C@@H](CS)C(N)=O)[C@@H](C)O [Ce-2 P4V] | 0.000272 s⁻¹ | 37300 M⁻¹ s⁻¹ | 7.29 nM | 8960 nM | 7.52e-05 s⁻¹ | 194000 M⁻¹ s⁻¹ | 0.407 nM | 2.14e-09 M | 0.0668 nM | 1.15e-05 s⁻¹ | 173000 M⁻¹ s⁻¹ | 
2 | CCC[C@@H]1NC(=O)[C@@H](Cc2ccc(O)cc2)NC(=O)CSC[C@@H](C(=O)N[C@@H](Cc2ccc(O)cc2)C(=O)N[C@@H](CC(C)C)C(=O)N[C@@H](Cc2ccc(O)cc2)C(=O)NCC(=O)N[C@H](C(=O)N[C@@H](CS)C(N)=O)[C@@H](C)O)NC(=O)[C@H](Cc2ccc(O)cc2)NC(=O)[C@H](CC(=O)O)NC(=O)CNC(=O)[C@@H]2CCCN2C(=O)[C@H](Cc2ccc(O)cc2)NC1=O [Ce-2 D2Nva] ({CH2CO}-[dY][Nva]YPGDYCYLYGTC-NH2; thioether N-8) | 0.00195 s⁻¹ | 132000 M⁻¹ s⁻¹ | 47.1 nM | 8730 nM | 0.000143 s⁻¹ | 376000 M⁻¹ s⁻¹ | 0.378 nM | 1.51e-09 M | 0.0257 nM | 4.98e-05 s⁻¹ | 1.94e+06 M⁻¹ s⁻¹ | 1.46e-09 M
3 | CC(C)C[C@H](NC(=O)[C@H](Cc1ccc(O)cc1)NC(=O)[C@@H]1CSCC(=O)N[C@H](Cc2ccc(O)cc2)C(=O)N[C@@H](CC(=O)O)C(=O)N[C@@H](Cc2ccc(O)cc2)C(=O)N2CCC[C@H]2C(=O)NCC(=O)N[C@@H](CC(=O)O)C(=O)N[C@@H](Cc2ccc(O)cc2)C(=O)N1)C(=O)N[C@@H](Cc1ccc(O)cc1)C(=O)NCCCC(=O)N[C@@H](CS)C(N)=O [Ce-2 [12-13]GABA] |  |  |  | 2980 nM |  |  |  | 2.85e-09 M |  |  |  | 
4 | CC(C)C[C@H](NC(=O)[C@H](Cc1ccc(F)cc1)NC(=O)[C@@H]1CSCC(=O)N[C@H](Cc2ccc(O)cc2)C(=O)N[C@@H](CC(=O)O)C(=O)N[C@@H](Cc2ccc(O)cc2)C(=O)N2CCC[C@H]2C(=O)NCC(=O)N[C@@H](CC(=O)O)C(=O)N[C@@H](Cc2ccc(O)cc2)C(=O)N1)C(=O)N[C@@H](Cc1ccc(O)cc1)C(=O)NCC(=O)N[C@H](C(=O)N[C@@H](CS)C(N)=O)[C@@H](C)O [Ce-2 Y9(4F)F] ({CH2CO}-[dY]DYPGDYC[Phe(4-F)]LYGTC-NH2; thioether N-8) |  |  |  | 6930 nM |  |  |  | 2.8e-09 M |  |  |  | 
5 | CC[C@H](C)[C@@H]1NC(=O)[C@H](Cc2ccc(O)cc2)NC(=O)[C@H](CC(=O)O)NC(=O)[C@@H](Cc2ccc(O)cc2)NC(=O)CSC[C@@H](C(=O)N[C@@H](Cc2ccc(O)cc2)C(=O)N[C@@H](CC(C)C)C(=O)N[C@@H](Cc2ccc(O)cc2)C(N)=O)NC(=O)[C@H](Cc2ccc(O)cc2)NC(=O)[C@H](CC(=O)O)NC(=O)CNC1=O [Ce-2d P4I] |  |  |  | 21900 nM |  |  |  | 2.21e-07 M |  |  |  | 
6 | CC(C)C[C@H](NC(=O)[C@H](Cc1ccc(O)cc1)NC(=O)[C@@H]1CSCC(=O)N[C@H](Cc2ccc(O)cc2)C(=O)N[C@@H](CC(=O)O)C(=O)N[C@@H](Cc2ccc(F)cc2)C(=O)N2CCC[C@H]2C(=O)NCC(=O)N[C@@H](CC(=O)O)C(=O)N[C@@H](Cc2ccc(O)cc2)C(=O)N1)C(=O)N[C@@H](Cc1ccc(O)cc1)C(=O)NCC(=O)N[C@H](C(=O)N[C@@H](CS)C(N)=O)[C@@H](C)O [Ce-2 Y3(4F)F] ({CH2CO}-[dY]D[Phe(4-F)]PGDYCYLYGTC-NH2; thioether N-8) |  |  |  | 4180 nM |  |  |  | 1.52e-09 M |  |  |  | 
